Laboratory results from patent US20230406803A1, “TROPOLONE DERIVATIVES AND TAUTOMERS THEREOF FOR IRON REGULATION IN ANIMALS” (Kinesid Therapeutics, Inc, priority 2020, published 2023).

Experiment: Ligand facilitated Fe(III) efflux from liposomes
Type: biochemical
Set-up: unit not given here
Conditions: efflux rate k at 10 μM ligand concentration; ferrozine absorbance 562 nm, 120 min kinetic read
Method: Assay 1: Ligand Facilitated Fe(III) Efflux from Liposomes
Preparation of POPC (1 palmitoyl-2-oleoyl-sn-glycero-3 phosphocholine): Cholesterol Liposomes
A 1M buffer solution of MES and Tris was prepared by dissolving 121.14 grams of Tris base and 213.25 grams of MES hydrate in 500 mL of MilliQ water and adjusted to pH7.0 using an […] HCl solution before bringing the total volume of the solution to 1 L. A 500 mM solution of FeCl3 was prepared by dissolving 0.811 grams of anhydrous FeCl3 in 10 mL of a 0.1M H2SO4 aqueous solution. Inside buffer is prepared in a 50 mL falcon tube, which was added with 25 mL of MilliQ water, 1.61 g of sodium citrate, 1.5 mL of the above FeCl3 solution, and 2.5 mL of the 1M MES/Tris HCl buffer (pH=7.0), and finally additional MilliQ H2O to bring to a 50 mL final volume.
Lipid solution is prepared by dissolving 206.9 mg of POPC (1-palmitoyl-2-oleoyl-sn-glycero-3-phosphocholine) and 8.6 mg of cholesterol in 10 mL of ethanol.
The lipids solution and the inside buffer solution are independently loaded into 10 mL luer lock syringes for loading into a virgin cartridge on a Precision Nanosystems NanoAssembler to prepare unilamaller liposomes with the following parameters: 7.5 mL total volume, 1.5:1 mixing ratio of inside buffer:lipids solution, 8 mL/min flow rate, ambient temperature, 0.35 mL start waste, and 0.05 mL of end waste. 7.5 mL of liposomes is harvested for purification on a 6-inch long, 1-inch diameter Sephadex G-50 column wetted in 600 mM sodium ascorbate and 50 mM MES/Tris HCl pH 7.0 buffer. This buffer also serves as the column running buffer. The crude liposome solution is carefully loaded with minimal volume of running buffer above the top of the Sphadex, allowed to enter the matrix, and the column is run with the continued addition of running buffer. The eluting liposomes, observed as a milky and turbid solution, are collected until free iron begins to elute (observed as a deep purple color) and the fractions are pooled for phosphorus quantitation.
Determination of Phosphorus Content:
Phosphorus content of eluted liposomes was determined by the process outlined below. 10 μL of liposome elution and a running buffer blank are added to a 5 mL glass vial containing 450 μL of a 8.9 M aqueous H2SO4 solution, the mixture is heated to 225° C. for 25 minutes in an aluminum heat block to hydrolyze POPC and cooled for 5 minutes. 200 μL of a 30% hydrogen peroxide aqueous solution is added to each vial and heated to 225° C. for 25 minutes. After cooling, the phosphorus content was determined using an Abcam Phosphate Assay kit, with buffer subtracted phosphorus levels determined against a standard curve of phosphate included in the kit. Liposomes were diluted to 1 mM phosphate in Running Buffer for use in assays after accounting for dilutions made during phospholipid digestion.
Determination of the Iron Transporting Rate Constant of the Ligands:
Determination of the rate at which a small molecule ligand liberates (transport) Ferric iron from liposomes is performed in clear bottom black 384-well plates on a Spectramax i3x set to read the absorbance at 562 nm in the kinetic mode every 60 seconds for 120 minutes. 1 μL of serially diluted DMSO stock solution of a small molecule ligand is added to wells in triplicate to give the final concentrations of 40, 20, 10, 5, 2.5, and 1.25 uM of the ligand at 80 μL final volume, followed by addition of 1 μL of 100 mM Ferrozine in water to give a final concentration of 1 mM ferrozine. 78 μL of liposomes diluted to 1 mM phosphorus in running buffer is added to wells as quickly as possible (using a digital repeater multichannel pipette) with the kinetic read initiated as rapidly as possible after addition of liposomes to all wells. Typically, eight compounds at six concentrations are tested in triplicate simultaneously. […]

Structure (SMILES)	Liposome Fe transport kefflux at 10 μM
CC(C)c1cccc(S)c(=O)c1	0.1-5
O=c1ccccc(C2CC3CC3C2)c1[O-].[Na+] (centres unmarked)	0.1-5
O=c1cccc2c(c1O)OCCC2	5-7.5
COC1CCCC1c1ccccc(=O)c1O (centres unmarked)	5-7.5
O=c1c(O)ccc(C2CC2)cc1F	10-25
O=c1cccc(F)cc1O	0.1-5
O=c1c(F)cccc(C2CC2)c1O	7.5-10
O=c1ccccc(CC2COC2)c1O	<0.1
O=c1cccc(C2CCC3(CC2)CC3)cc1O	0.1-5
CC(C)c1cc(F)ccc(=O)c1O	0.1-5
O=c1c(F)cccc(OC2CCC2)c1O	10-25
Cc1cccc(C2CCCO2)c(O)c1=O (centres unmarked)	10-25
O=c1cccc(O[C@H]2CCOC2)cc1O (stereo in doubt)	5-7.5
O=c1c(F)cccc(C2CCCCO2)c1O (centres unmarked)	5-7.5
O=c1ccc(C(CO)Cc2ccccc2)ccc1O (centres unmarked)	0.1-5
CC(C)c1ccc(F)cc(O)c1=O	0.1-5
COc1ccc(O)c(=O)cc1	5-7.5
O=c1ccccc(OC2CCCC2)c1O	7.5-10
O=c1c(F)cccc(OC2CC2)c1O	0.1-5
O=c1cccc(OC2CCC2)cc1O	0.1-5
O=c1ccc(OC2CCCC2)ccc1O	5-7.5
C[C@@H]1CCC(c2ccccc(=O)c2O)O1 (mixture of isomers)	5-7.5
O=c1c(F)cccc(OC2CCCC2)c1O	7.5-10

Structure (SMILES)	Liposome Fe transport kefflux at 10 μM
O=c1c(F)cccc(OC2CC3(CC3)C2)c1O	0.1-5
O=c1ccc(F)cc(C2CCOCC2)c1O	7.5-10
Cc1coc2c(O)c(=O)cccc12	7.5-10
CC1(c2ccc(O)c(=O)cc2)CC1	0.1-5
O=c1cccc(OC2CC3(CC3)C2)cc1O	5-7.5
CCc1ccc(F)c(=O)c(O)c1	0.1-5
O=c1ccc(F)ccc1O	7.5-10
O=c1ccc(F)cc(C2CCCO2)c1O (centres unmarked)	5-7.5
C[C@H](Oc1ccccc(=O)c1O)C1CC1 (stereo in doubt)	5-7.5
CC1(c2ccc(O)c(=O)c(F)c2)CC1	5-7.5
O=c1c(O)ccc(OC2CCCC2)cc1F	5-7.5
C[C@@H](Oc1ccccc(=O)c1O)C1CC1 (stereo in doubt)	5-7.5
Cc1cc(Cl)ccc(=O)c1O	5-7.5
Cc1cc(F)ccc(=O)c1O	5-7.5
CC1(C)CCC(c2ccc(O)c(=O)cc2)C1 (centres unmarked)	0.1-5
O=c1ccc(OC2CC3(CC3)C2)ccc1O	0.1-5
O=c1ccc(F)cc(C2CCCCO2)c1O (centres unmarked)	0.1-5
Cc1cccc(C2CCCCO2)c(O)c1=O (centres unmarked)	<.1
O=c1cccc(C2CC3CC3C2)cc1O (centres unmarked)	0.1-5
CC(C)c1cccc(=O)c(S)c1	0.1-5
O=c1ccc(F)cc(OC2CCC2)c1O	0.1-5
O=c1ccccc(OCC2CCC2)c1O	5-7.5
CC1CCC(c2ccccc(=O)c2O)O1 (racemic)	5-7.5

Experiment: Mouse 6-hour PK study
Conditions: mouse, in vivo
Text: Useful such assays include, but are not limited to e.g., those measurements made in PK studies, such as rodent and non-human primate PK studies, including e.g., mouse (such as mouse 6-hour PK studies), rat PK studies, cynomolgus or rhesus PK studies, or the like. Useful measurements obtained in such PK studies include but are not limited to e.g., maximum concentration (Cmax) reflecting the “peak” of a drug observed after its administration that can reflect not only the rate but also the extent of absorption, area under the curve (AUC) representing the area under the plot of tissue (e.g., plasma) concentration against time after drug administration which is of particular use in estimating bioavailability of drugs and drug total clearance, half-life (t1/2) or the period of time required for the concentration or amount of drug to be reduced to exactly one-half of a given concentration or amount that indicates the persistence of the drug in its volume of distribution, and the like.
Such assessments included human and mouse liver microsomal stability assays as well as 6-hour mouse PK studies.

Structure (SMILES)	AUC(0-t) [ng·h/mL]	Cmax [ng/mL]	half-life [h]	mouse 6-hour PK properties as compared to hinokitiol
O=c1c(O)cc(C2CC2)ccc1F [Ex. 34, 4-cyclopropyl-7-fluoro-2-hydroxycyclohepta-2,4,6-trien-1-one]	> 20000	5000 to 20000	1.25 to 4.99	one or more improved mouse 6-hour PK properties as compared to hinokitiol
Cc1cc(C(C)C)ccc(O)c1=O [Ex. 28, 7-hydroxy-4-isopropyl-2-methylcyclohepta-2,4,6-trien-1-one]	< 499	< 499	1.25 to 4.99	one or more improved mouse 6-hour PK properties as compared to hinokitiol
O=c1ccccc(OC2CC3(CC3)C2)c1O [Ex. 82, 2-hydroxy-3-(spiro[2.3]hexan-5-yloxy)cyclohepta-2,4,6-trien-1-one]	500 to 1500	< 499	< 1.25	one or more improved mouse 6-hour PK properties as compared to hinokitiol
Cc1cccc(C(C)C)c(O)c1=O [Ex. 30, 2-hydroxy-3-isopropyl-7-methylcyclohepta-2,4,6-trien-1-one]	< 499	< 499	5 to 9.99	one or more improved mouse 6-hour PK properties as compared to hinokitiol
O=c1ccccc(OCC2CC2)c1O [Ex. 83, 3-(cyclopropylmethoxy)-2-hydroxycyclohepta-2,4,6-trien-1-one]	500 to 1500	1500 to 5000	< 1.25	one or more improved mouse 6-hour PK properties as compared to hinokitiol
O=c1cccc(C2CC3CCC(C2)O3)cc1O (centres unmarked) [Ex. 6, 4-(8-oxabicyclo[3.2.1]octan-3-yl)-2-hydroxycyclohepta-2,4,6-trien-1-one]	500 to 1500	500 to 1500	1.25 to 4.99	one or more improved mouse 6-hour PK properties as compared to hinokitiol
O=c1ccccc(C2CCOCC2)c1O [Ex. 8, 2-hydroxy-3-(tetrahydro-211-pyran-4-yl)cyclohepta-2,4,6-trien-1-one]	500 to 1500	500 to 1500	1.25 to 4.99	one or more improved mouse 6-hour PK properties as compared to hinokitiol
